Literature values, collected in patent publication US5591773A, “Inhibition of cataract formation, diseases resulting from oxidative stress, and HIV replication by caffeic acid esters” (priority 1994, dated 1997).

What was measured:
bovine lens (opacity) = settings: cited from earlier work
HeLa cells = settings: cited from earlier work
bovine lens (H2O2) = settings: cited from earlier work
tumor promotion = settings: cited from earlier work
mammalian cells = settings: cited from earlier work
[1] = test system: TPA-induced oxidative processes (PMN infiltration, reactive oxygen species generation, DNA base oxidation); settings: sarcophytol A 6.5 nmol, TPA 6.5 nmol/treatment; cited from earlier work

SMILES	inhibition of TPA-mediated lens opacification (in words) (bovine lens (opacity))	inhibition of TPA-mediated H2O2 production, lens (in words) (bovine lens (H2O2))	anti-tumor promoting properties (in words) (tumor promotion)	further results
O=C(O[C@@H]1Cc2c(O)cc(O)cc2O[C@@H]1c1cc(O)c(O)c(O)c1)c1cc(O)c(O)c(O)c1 [EGCG, (-)-epigallocatechin gallate]	effective inhibitors	effective inhibitors	known anti-tumor promoters	inhibition of TPA-induced oxidative processes (in words) (HeLa cells; EGCG 50 nmol): less effective inhibition of TPA-induced oxidative processes; HMdUrd and 8-OHdGua levels (in words) (HeLa cells; EGCG 5-25 nmol preincubation, TPA): contained lower levels of HMdUrd and 8-OHdGua than cells treated only with TPA
O=c1[nH]c(=O)n([C@H]2C[C@H](O)[C@@H](CO)O2)cc1CO [HMdUrd, 5-hydroxymethyl-2'-deoxyuridine]				cytotoxicity and mutagenicity (in words) (mammalian cells): cytotoxic and cytostatic to a number of mammalian cells and is mutagenic
O=C(O)/C=C/c1ccc(O)c(O)c1 [caffeic acid]			known anti-tumor promoters	
COc1cc(/C=C/C(=O)CC(=O)/C=C/c2ccc(O)c(OC)c2)ccc1O [curcumin]			known anti-tumor promoters	
C/C1=C\C=C(\C(C)C)[C@@H](O)C/C(C)=C/CC/C(C)=C/CC1 [sarcophytol A]	effective inhibitors	effective inhibitors	known anti-tumor promoters	inhibition of TPA-induced oxidative processes (in words) [1]: potent inhibitor
